Measured values from article PMC10165932, “Tripeptides conjugated with thiosemicarbazones: new inhibitors of tyrosinase for cosmeceutical use” (Journal of Enzyme Inhibition and Medicinal Chemistry, 2023).
“And” between values parts separate entries of the source, which are not always exact repeats. Identical values can stand only once. Like-named read-outs stand apart in the source and are kept apart here. Where a SMILES comes first, the peptide text is derived from it.

Key:
[1] = tested on: B16F0 murine melanoma cell line; assay: cells; assay type: cell-based; settings: 48 h
Description: B16F0 murine melanoma cell line was cultured in DMEM (Biowest, Nuaillé, France) medium supplemented with 100 U/ml streptomycin (Sigma-Aldrich, Taufkirchen, Germany), 100 U/ml penicillin (Sigma-Aldrich, Taufkirchen, Germany), and 10% foetal bovine serum (Sigma-Aldrich, Taufkirchen, Germany). Cells were maintained in 5% CO2 at 37 °C. Cells viability was estimated by MTT colorimetric assay as described by Bellei et al.[51] B16 cells were seeded into 96-well plate (4 × 10^3 cells/well) and incubated in the presence of the investigated compounds at various concentrations (1000, 400, 100, 40, 10, 1, 0.1 μM) for 48 h. Kojic acid and DMSO were used as controls. MTT was added into wells (0.625 mg/ml, Sigma-Aldrich, Taufkirchen, Germany) for the last 4 h. Then lysing buffer was added to dissolve insoluble formazan. The absorbance was measured (λ = 570 nm) using Thermo Lab Multiscan RC microplate reader.

mushroom tyrosinase [2] = target: T1, mushroom tyrosinase (Agaricus bisporus, UniProt C7FF04); assay: Tyrosinase inhibition assay (diphenolase activity, L-DOPA substrate); assay type: biochemical; settings: for tyrosinase inhibition (in words) / IC50: diphenolase activity; for tyrosinase inhibition (in words): tested range of concentrations; for IC50: L-DOPA 5 mM
T1 sequence (C7FF04 1-392): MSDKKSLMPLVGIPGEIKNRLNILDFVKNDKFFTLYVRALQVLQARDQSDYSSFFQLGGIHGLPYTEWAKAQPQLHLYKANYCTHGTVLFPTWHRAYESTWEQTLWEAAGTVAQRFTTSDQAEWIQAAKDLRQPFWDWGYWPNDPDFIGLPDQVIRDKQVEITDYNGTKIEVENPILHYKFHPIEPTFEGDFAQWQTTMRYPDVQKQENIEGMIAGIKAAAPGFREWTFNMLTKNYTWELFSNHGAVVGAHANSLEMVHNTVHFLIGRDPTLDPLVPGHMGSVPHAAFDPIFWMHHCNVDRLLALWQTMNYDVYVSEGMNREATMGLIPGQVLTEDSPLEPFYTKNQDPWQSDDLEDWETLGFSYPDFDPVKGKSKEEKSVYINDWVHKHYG
Description: The tyrosinase enzymatic assay was performed according to the protocol described previously in our papers[46–48] using L-3,4-dihydroxyphenylalanine (L-DOPA) (Sigma-Aldrich, Germany) as a substrate. L-DOPA was dissolved in an aqueous 0.15 mM phosphoric(V) acid solution, preventing its oxidation. […] Tyrosinase powder (Sigma-Aldrich, Germany) was dissolved in the assay buffer to obtain a concentration of 50,000 units/mL. This stock solution was divided into 50 μL aliquots, each one containing 2500 units of tyrosinase, and stored at −80 °C. Shortly before the assay, one of the aliquots was reconstituted in the assay buffer up to 3000 μL. First, 10 μL of the diluted enzyme solution was preincubated with samples at various concentrations for 5 min at 25 °C. Afterwards, 20 μL of L-DOPA solution was added.
The screening of tyrosinase activity of the synthetic compounds was performed according to the procedure previously reported in our articles.[46–48] As reported in most of the research dealing with tyrosinase inhibition, we employed mushroom tyrosinase, due to the lack of information and the limited availability of human tyrosinase.[59]^,[60] All the compounds were evaluated at different concentrations after incubation with tyrosinase in solution for 5 min at room temperature. Afterwards, the substrate L-DOPA was added to start the enzymatic reaction. The absorbance provided by the colourful derivative, dopachrome, was measured every 5 s for 10 min in order to monitor the progress of the reaction over time. […] (1) % of ENZactivity=Sampleslope/ECslope×100

mushroom tyrosinase [3] = target: T1, mushroom tyrosinase; settings: cited from earlier work; for tyrosinase inhibition (in words): previous paper
[4] = tested on: B16F0 murine melanoma cell line; assay: cells; assay type: cell-based; settings: for % Of melanogenesis inhibition at a specific inhibitor concentration / inhibition at 10 µM / inhibition at 40 µM: B16F0, 48 h; for inhibition at 10 µM / inhibition at 40 µM: read-out: % Of melanogenesis inhibition at a specific inhibitor concentration
Description: The effect of the synthetic compounds on melanogenesis inhibition was performed in B16F0 murine melanoma cell line. The mouse model of human skin is often employed in skin biology and cancer research due to numerous similarities.[62] B16F0 murine melanoma cell line shares most of the melanogenesis with human melanocytes. Therefore, it is the proper model for screening the effect of potential inhibitors on melanogenesis.[63]

[5] = tested on: B16F0 murine melanoma cell line; design: method as in PMID 30248509; settings: previous paper; read-out: IC50 value for melanogenesis; cited from earlier work
[6] = n = 3, read-out: The maximum percentage of inhibition reached for poor inhibitors
[7] = Mus musculus, B16F0, MTT, n = 3, read-out: IC50 of cell proliferation
[8] = Mus musculus, B16F0, n = 3, read-out: IC50 of melanin production

Row | IC50 [1] [µM] | IC50 ([4]; 24 h) [µM] | inhibition at 250 µM (mushroom tyrosinase [2]; [6]) [%] | IC50 (mushroom tyrosinase [2]; n = 3) | SMILES | % Of melanogenesis inhibition at a specific inhibitor concentration ([4]; 10 µM) [%] | % Of melanogenesis inhibition at a specific inhibitor concentration ([4]; 40 µM) [%] | also measured
1 | 106 | 246 |  |  | CC(=O)N[C@@H](Cc1ccccc1)C(=O)N[C@@H](Cc1ccccc1)C(=O)N[C@@H](Cc1ccc(O)cc1)C(=O)O [Compound 4, Ac-FFY-OH] (Ac-Phe-Phe-Tyr-OH) | 1 | 3 | tyrosinase inhibition (in words) (mushroom tyrosinase [2]): no significant inhibition was observed in the tested range of concentrations; IC50 (mushroom tyrosinase [3]; tyrosinase inhibition, read-out: IC50 found in the literature): 240 µM
2 | 49.8 | 162 | 62 | > 150 µM | C/C(=N\NC(N)=S)c1ccc(C(=O)N[C@@H](Cc2ccccc2)C(=O)N[C@@H](Cc2ccccc2)C(=O)N[C@@H](Cc2ccc(O)cc2)C(=O)O)cc1 [Compound 13, TSC3-FFY-OH] | 0 | 3 | 
3 | 83.7 | 145 |  | 26.1 ± 9 µM | C/C(=N\NC(N)=S)c1ccc(C(=O)N[C@@H](Cc2ccccc2)C(=O)N[C@@H](Cc2ccc(O)cc2)C(=O)N[C@@H](Cc2ccc(O)cc2)C(=O)O)cc1 [Compound 14, TSC3-FYY-OH] | 0 | 4 | 
4 |  |  |  |  | NC(=S)NN=C(c1ccccc1)c1ccccc1 [thiosemicarbazone of benzophenone] |  |  | IC50 [5]: < 2 µM; tyrosinase inhibition (in words) (mushroom tyrosinase [3]): efficient tyrosinase inhibitor
5 | 77.2 |  | 36 |  | CC(C(=O)N[C@@H](Cc1ccccc1)C(=O)N[C@@H](Cc1ccc(O)cc1)C(=O)N[C@@H](Cc1ccc(O)cc1)C(=O)O)c1cccc(C(=NNC(N)=S)c2ccccc2)c1 (mixture of isomers) [Compound 11, TSC2-FYY-OH] | 0 | 0 | 
6 |  |  |  | > 150 µM | CC(C(=O)O)c1cccc(/C(=N\NC(N)=S)c2ccccc2)c1 (centres unmarked) [Compound 2, thiosemicarbazone of ketoprofen] |  |  | IC50 [1, 7]: 71.5 µM; inhibition at 150 µM (mushroom tyrosinase [2]; at 150 μM, n = 3, read-out: The maximum percentage of inhibition reached for poor inhibitors): 34%; tyrosinase inhibition (in words) (mushroom tyrosinase [2]): no significant inhibition towards tyrosinase; inhibition at 10 µM ([4]; Mus musculus, 10 µM): 28%; inhibition at 40 µM ([4]; Mus musculus, 40 µM): 77%; IC50 [4, 8]: 19.8 µM
7 | 77.1 | 151 |  | 6.5 µM and 6.66 µM | NC(=S)N/N=C/c1ccc(C(=O)N[C@@H](Cc2ccccc2)C(=O)N[C@@H](Cc2c[nH]c3ccccc23)C(=O)N[C@@H](Cc2ccc(O)cc2)C(=O)O)cc1 [Compound 9, TSC1-FWY-OH] | 0 | 11 | 
8 | 63.2 | 89.9 | 50 |  | CC(C(=O)N[C@@H](Cc1ccccc1)C(=O)N[C@@H](Cc1c[nH]c2ccccc12)C(=O)N[C@@H](Cc1ccc(O)cc1)C(=O)O)c1cccc(C(=NNC(N)=S)c2ccccc2)c1 (mixture of isomers) [Compound 12, TSC2-FWY-OH] | 0 | 3 | 
9 | 72.8 | 138 | 77 | > 150 µM | NC(=S)N/N=C/c1ccc(C(=O)N[C@@H](Cc2ccccc2)C(=O)N[C@@H](Cc2ccccc2)C(=O)N[C@@H](Cc2ccc(O)cc2)C(=O)O)cc1 [Compound 7, TSC1-FFY-OH] | 1 | 10 | 
10 | 96.6 | 175 |  |  | CC(=O)N[C@@H](Cc1ccccc1)C(=O)N[C@@H](Cc1ccc(O)cc1)C(=O)N[C@@H](Cc1ccc(O)cc1)C(=O)O [Compound 5, Ac-FYY-OH] (Ac-Phe-Tyr-Tyr-OH) | 0 | 2 | tyrosinase inhibition (in words) (mushroom tyrosinase [2]): no significant inhibition was observed in the tested range of concentrations
11 | 99 | 158 |  | 6.5 µM and 6.57 µM | NC(=S)N/N=C/c1ccc(C(=O)N[C@@H](Cc2ccccc2)C(=O)N[C@@H](Cc2ccc(O)cc2)C(=O)N[C@@H](Cc2ccc(O)cc2)C(=O)O)cc1 [Compound 8, TSC1-FYY-OH] | 3 | 12 | 
12 | 77.4 | 146 | 45 |  | CC(C(=O)N[C@@H](Cc1ccccc1)C(=O)N[C@@H](Cc1ccccc1)C(=O)N[C@@H](Cc1ccc(O)cc1)C(=O)O)c1cccc(C(=NNC(N)=S)c2ccccc2)c1 (mixture of isomers) [Compound 10, TSC2-FFY-OH] | 0 | 4 | 
13 | 67.5 | 67.1 |  | 25.1 ± 2.5 µM | C/C(=N\NC(N)=S)c1ccc(C(=O)N[C@@H](Cc2ccccc2)C(=O)N[C@@H](Cc2c[nH]c3ccccc23)C(=O)N[C@@H](Cc2ccc(O)cc2)C(=O)O)cc1 [Compound 15, TSC3-FWY-OH] | 5 | 20 | 
14 |  |  |  |  | NC(=S)N/N=C(\Cc1ccccc1)c1ccccc1 [thiosemicarbazone of (E)-2-phenylacetophenone] |  |  | IC50 [5]: < 2 µM; tyrosinase inhibition (in words) (mushroom tyrosinase [3]): did not inhibit tyrosinase at all
15 | 81 | 141 |  |  | CC(=O)N[C@@H](Cc1ccccc1)C(=O)N[C@@H](Cc1c[nH]c2ccccc12)C(=O)N[C@@H](Cc1ccc(O)cc1)C(=O)O [Compound 6, Ac-FWY-OH] (Ac-Phe-Trp-Tyr-OH) | 0 | 4 | tyrosinase inhibition (in words) (mushroom tyrosinase [2]): no significant inhibition was observed in the tested range of concentrations
16 |  |  |  |  | O=c1cc(CO)occ1O [Kojic acid, reference compound] |  |  | IC50 [1, 7]: 162 µM; inhibition at 10 µM ([4]; Mus musculus, 10 µM): 1%; inhibition at 40 µM ([4]; Mus musculus, 40 µM): 12%; IC50 [4, 8]: 121 µM
